{"source": "patent US20140050778A1", "about": "“NUCLEIC ACID BINDING COMPOUNDS, METHODS OF MAKING, AND USE THEREOF” (UNIVERSITY OF ROCHESTER, priority 2010, published 2014)", "key": {"[1]": {"test_system": "(CUG)10 RNA (SEQ ID NO: 3)", "assay": "SPR binding to immobilized biotinylated RNA", "settings": "(CUG)10; for improvement in affinity relative to compound 1: SPR KD versus filter-binding KD of compound 1"}, "[2]": {"test_system": "(CCUG)10 RNA (SEQ ID NO: 4)", "assay": "SPR binding to immobilized biotinylated RNA", "settings": "(CCUG)10; for Off-rates (koff) / On-rates (kon): SPR", "description": "(§1) SPR binding measurements were performed on a Biacore-X instrument (Biacore, Inc., Uppsala, Sweden) with two flow channels (FC1 and FC2). 5′-Biotinylated-RNA sequences, with a C6 linker separating the biotin label from the RNA (Integrated DNA Technologies Inc.) were immobilized on streptavidin (Rockland Immunochemicals) functionalized carboxylmethyl dextran coated sensor chips (CM5, G.E. Healthcare) using EDC/NHS (Advanced ChemTech) coupling chemistry. Filtered (0.2μ), degassed and autoclaved HBS-N buffer (0.01M Hepes, pH=7.4, 0.15 M NaCl) was employed as sample and as running buffer for all SPR experiments. A typical protocol for an experiment is as follows: A CM5 sensor chip was allowed to equilibrate to room temperature and then docked into the instrument. Following priming with running buffer, FC1 and FC2 were conditioned by manual injection of 20 μL aqueous NaOH (50 mM) at a flow rate of 30 μL/min. This was repeated 3 times followed by a wash command. Next, the carboxyl groups on the sensor chip surface in both flow cells were activated separately by injecting 60 μL of freshly prepared 1:1 mixture of EDC (0.4 M) and NHS (0.1 M) at a 5 μL/min flow rate followed by a wash. […] After washing, the surface was deactivated with 60 μL injection of ethanolamine (1M, pH=8.5) at 5 μL/min. The flow cells were primed, and the streptavidin surface in FC1 alone was blocked with 30 μL of biotin (20 μM in HBS-N) at 5 μL/min. The RNA (200 nM in running buffer, HBS-N) to be immobilized was unfolded by heating above its predicted melting temperature in a heated block for 2 min and then allowed to refold by cooling gradually to room temperature. The RNA was then immobilized in FC2 alone to response units ranging from 200-1000 RU using a 5 μL/min flow rate. Representative sensorgrams for the immobilization procedure is shown in FIGS. 2A-B. Two 20 μL aliquots of NaCl (0.5 M) were injected at a 30 μL/min flow rate to remove non-specifically bound RNA. The level of RNA immobilized was noted when the baseline was stable, usually after repeated buffer injection followed by a “prime” command. Binding measurements were performed by flowing various concentrations of the compounds to be analyzed over the immobilized RNA and recording the reference-subtracted (FC2−FC1) sensorgrams. For kinetic analysis, at least five sensorgrams corresponding to different concentrations of compound (usually ranging from 0.05-1 μM in HBS-N) were obtained using flow rates of either 60 μL/min or 30 μL/min. The experimental sensorgrams were globally fitted to a 1:1 binding equation (Biaevaluation software) to obtain association rates (ka) and dissociation rates ([…]) as well as equilibrium binding constants (KD). To measure the binding stoichiometry (n), the relations in equations (1-3) below were used: […]\n(§2) where RUmax is the maximum resonance response unit at saturation, RURNA is the amount RU of RNA immobilized, n is the stoichiometry, MWcompound and MWRNA are molecular weights of compound and RNA respectively, and RUeq represents the resonance response at steady-state (equilibrium). The response units at equilibrium were subjected to Scatchard binding plots of (r/Cfree vs. r).\n(§3) The binding characteristics of compounds 3-11 were evaluated against pathogenic CUG^exp RNA and other RNA sequences by SPR. This technique allows the association and dissociation rates (ka and kd), equilibrium binding constants (KD), and the binding stoichiometry (n) to be measured in a label-free format (Liu and Wilson, “Quantitative Analysis of Small Molecule-nucleic Acid Interactions with a Biosensor Surface and Surface Plasmon Resonance Detection,” Methods Mol. Biol. 613:1-23 (2010), which is hereby incorporated by reference in its entirety). […]"}, "[3]": {"test_system": "(CUG)2 RNA (SEQ ID NO: 1)", "assay": "SPR binding to immobilized biotinylated RNA", "settings": "for Off-rates (koff) / On-rates (kon): SPR; for ka / kd: Table 7, SPR", "description": "as §1, §2, §3"}, "[4]": {"test_system": "(CUG)4 RNA (SEQ ID NO: 2)", "assay": "SPR binding to immobilized biotinylated RNA", "settings": "for Off-rates (koff) / On-rates (kon): SPR", "description": "as §1, §2, §3"}, "[5]": {"test_system": "(CAG)10 RNA (SEQ ID NO: 5)", "assay": "SPR binding to immobilized biotinylated RNA", "settings": "for Off-rates (koff) / On-rates (kon): SPR", "description": "as §1, §2, §3"}, "[6]": {"test_system": "CUG-CAG duplex (\"Duplex\") (SEQ ID NO: 6)", "assay": "SPR binding to immobilized biotinylated RNA", "settings": "for Residence time (t1/2) for compound binding to RNA / Off-rates (koff) / On-rates (kon): Duplex", "description": "as §1, §2, §3"}, "human fibroblasts": {"test_system": "human fibroblasts", "assay": "MTT toxicity assay", "type": "cell-based", "settings": "compounds 4 and 5 measured as a mixture, concentrations up to 500 μM", "description": "For toxicity studies, mouse myoblasts or human fibroblasts were plated in a 96-well tissue culture plate in DMEM (10% fetal bovine serum, 100 units/ml penicillin, […]) and allowed to grow to approximately 80% confluence at 37° C. under CO2. Varying compound concentrations (up to 1 mM) were incubated with cells (48 hours, 37° C.). Media was then removed, and 3-(4,5-dimethylthiazol-2-yl)-2,5-diphenyltetrazolium bromide (“MTT”) in media was added to each well and incubated at 37° C. for 4 h. After removal of the MTT media, isopropanol (100 pp was added, and absorbance was measured at 600 nm on a Modulus microplate reader (Turner Biosystems).\nSPR and fluorescence titration experiments, performed using the protocol described in Examples 3 and 4 above, except using as the target a highly conserved RNA sequence responsible for regulating the production of the Gag-Pol polyprotein via a −1 ribosomal frameshift, which occurs along a “slippery sequence” in gag-pol mRNA (SEQ ID NO: 7). This “frameshift stimulatory sequence” (or “HIV-1 FSS”) consists of an upper stemloop and a lower stem, separated by a purine bulge in the most common types of HIV (FIG. 19). For the fluorescent titration experiments, the upper stemloop of SEQ ID NO: 7 was employed. Cell uptake and toxicity studies were carried out using human fibroblasts according to Example 5 above."}}, "note": "Where two headings read alike, the source gives them in different places."}
{"compound": "CCc1nc2cc3ccccc3cc2cc1C(=O)N1CCC[C@H]1C(=O)N[C@@H](C/C=C/C[C@H](NC(=O)[C@@H]1CCCN1C(=O)c1cc2cc3ccccc3cc2nc1CC)C(=O)N[C@@H](CCCCN)C(=O)NCCCN)C(=O)N[C@@H](CCCCN)C(=O)NCCCN", "note": "[Compound 5]", "values": [{"measurement": "Residence time (t1/2) for compound binding to RNA", "setting": "[1]", "value": 4.6762, "unit": "min"}, {"measurement": "improvement in affinity relative to compound 1", "setting": "[1]", "value": "roughly 50 fold"}, {"measurement": "Off-rates (koff)", "setting": "[1]; SPR", "value": 0.00247, "unit": "s⁻¹"}, {"measurement": "On-rates (kon)", "setting": "[1]; SPR", "value": 28400, "unit": "M⁻¹ s⁻¹"}, {"measurement": "Kd", "setting": "[1]; SPR, read-out: apparent KD", "value": "88.2 ± 0.28", "unit": "nM"}, {"measurement": "ka", "setting": "[1]; Table 7, SPR", "value": "ka = 2.84E+4/M * s"}, {"measurement": "kd", "setting": "[1]; Table 7, SPR", "value": "kd = 2.47E−3/s"}, {"measurement": "Kd", "setting": "[1]; Table 7, SPR, read-out: KD", "value": 88, "unit": "nM"}, {"measurement": "Residence time (t1/2) for compound binding to RNA", "setting": "[2]", "value": 11.702, "unit": "min"}, {"measurement": "Off-rates (koff)", "setting": "[2]", "value": 0.000987, "unit": "s⁻¹"}, {"measurement": "On-rates (kon)", "setting": "[2]", "value": 49700, "unit": "M⁻¹ s⁻¹"}, {"measurement": "Residence time (t1/2) for compound binding to RNA", "setting": "[3]", "value": 15.02, "unit": "min"}, {"measurement": "Off-rates (koff)", "setting": "[3]", "value": 0.000769, "unit": "s⁻¹"}, {"measurement": "On-rates (kon)", "setting": "[3]", "value": 20100, "unit": "M⁻¹ s⁻¹"}, {"measurement": "ka", "setting": "[3]", "value": "ka = 2.01E+4/M * s"}, {"measurement": "kd", "setting": "[3]", "value": "kd = 7.69E−4/s"}, {"measurement": "Residence time (t1/2) for compound binding to RNA", "setting": "[4]", "value": 8.3093, "unit": "min"}, {"measurement": "Off-rates (koff)", "setting": "[4]", "value": 0.00139, "unit": "s⁻¹"}, {"measurement": "On-rates (kon)", "setting": "[4]", "value": 30100, "unit": "M⁻¹ s⁻¹"}, {"measurement": "Residence time (t1/2) for compound binding to RNA", "setting": "[5]", "value": 4.2308, "unit": "min"}, {"measurement": "Off-rates (koff)", "setting": "[5]", "value": 0.00273, "unit": "s⁻¹"}, {"measurement": "On-rates (kon)", "setting": "[5]", "value": 50200, "unit": "M⁻¹ s⁻¹"}, {"measurement": "Residence time (t1/2) for compound binding to RNA", "setting": "[6]", "value": 3.0078, "unit": "min"}, {"measurement": "Off-rates (koff)", "setting": "[6]; SPR", "value": 0.00384, "unit": "s⁻¹"}, {"measurement": "On-rates (kon)", "setting": "[6]; SPR", "value": 15000, "unit": "M⁻¹ s⁻¹"}, {"measurement": "toxicity (MTT)", "setting": "human fibroblasts", "value": "no significant toxicity"}]}
{"compound": "CCc1nc2cc3ccccc3cc2cc1C(=O)N1CCC[C@H]1C(=O)N[C@@H](C/C=C\\C[C@H](NC(=O)[C@@H]1CCCN1C(=O)c1cc2cc3ccccc3cc2nc1CC)C(=O)N[C@@H](CCCCN)C(=O)NCCCN)C(=O)N[C@@H](CCCCN)C(=O)NCCCN", "note": "[Compound 4]", "values": [{"measurement": "Residence time (t1/2) for compound binding to RNA", "setting": "[1]", "value": 9.7882, "unit": "min"}, {"measurement": "improvement in affinity relative to compound 1", "setting": "[1]", "value": "roughly 50 fold"}, {"measurement": "Off-rates (koff)", "setting": "[1]; SPR", "value": 0.00118, "unit": "s⁻¹"}, {"measurement": "On-rates (kon)", "setting": "[1]; SPR", "value": 27800, "unit": "M⁻¹ s⁻¹"}, {"measurement": "Kd", "setting": "[1]; SPR, read-out: apparent KD", "value": "45 ± 3.3", "unit": "nM"}, {"measurement": "ka", "setting": "[1]; Table 7, SPR", "value": "ka = 2.78E+4/M * s"}, {"measurement": "kd", "setting": "[1]; Table 7, SPR", "value": "kd = 1.18E−3/s"}, {"measurement": "Kd", "setting": "[1]; Table 7, SPR, read-out: KD", "value": 45, "unit": "nM"}, {"measurement": "Residence time (t1/2) for compound binding to RNA", "setting": "[2]", "value": 6.2772, "unit": "min"}, {"measurement": "Off-rates (koff)", "setting": "[2]", "value": 0.00184, "unit": "s⁻¹"}, {"measurement": "On-rates (kon)", "setting": "[2]", "value": 60100, "unit": "M⁻¹ s⁻¹"}, {"measurement": "Residence time (t1/2) for compound binding to RNA", "setting": "[3]", "value": 13.08, "unit": "min"}, {"measurement": "Off-rates (koff)", "setting": "[3]", "value": 0.000883, "unit": "s⁻¹"}, {"measurement": "On-rates (kon)", "setting": "[3]", "value": 24500, "unit": "M⁻¹ s⁻¹"}, {"measurement": "ka", "setting": "[3]", "value": "ka = 2.45E+4/M * s"}, {"measurement": "kd", "setting": "[3]", "value": "kd = 8.83E−4/s"}, {"measurement": "Residence time (t1/2) for compound binding to RNA", "setting": "[4]", "value": 7.0858, "unit": "min"}, {"measurement": "Off-rates (koff)", "setting": "[4]", "value": 0.00163, "unit": "s⁻¹"}, {"measurement": "On-rates (kon)", "setting": "[4]", "value": 42400, "unit": "M⁻¹ s⁻¹"}, {"measurement": "Residence time (t1/2) for compound binding to RNA", "setting": "[5]", "value": 3.9965, "unit": "min"}, {"measurement": "Off-rates (koff)", "setting": "[5]", "value": 0.00289, "unit": "s⁻¹"}, {"measurement": "On-rates (kon)", "setting": "[5]", "value": 35600, "unit": "M⁻¹ s⁻¹"}, {"measurement": "Residence time (t1/2) for compound binding to RNA", "setting": "[6]", "value": 7.549, "unit": "min"}, {"measurement": "binding to duplex CUG-CAG stronger than the E isomer, compound 5", "setting": "[6]; SPR", "value": "approximately 5.7 fold"}, {"measurement": "Off-rates (koff)", "setting": "[6]; SPR", "value": 0.00153, "unit": "s⁻¹"}, {"measurement": "On-rates (kon)", "setting": "[6]; SPR", "value": 29500, "unit": "M⁻¹ s⁻¹"}, {"measurement": "toxicity (MTT)", "setting": "human fibroblasts", "value": "no significant toxicity"}]}
